Patent US20110306554A1, “PEPTIDE CAPABLE OF BINDING TO IMMUNOGLOBULIN” (priority 2009, published 2011)
Blank lines part the entries; values can stand above or below the compound they belong to. Non-standard residues stand in square brackets, D forms with d. Residues, ends and D or L forms follow the SMILES beside them. No end group written: not given here.

How the values were obtained:
[1] = system: binding between human C1q protein and human immunoglobulin (IgG); experiment: Inhibition of binding between C1q and immunoglobulin (C1q spotted on nitrocellulose membrane, ALP-labeled IgG); conditions: peptide concentration 500 μg/ml, 400 ng human C1q per spot
Description: Peptides were synthesized by GL Biochem (Shanghai), which have the following amino acid sequences: the amino acid sequence depicted in SEQ ID NO: 2 (peptide R2); a shorter amino acid sequence than this peptide, PGLYYF (SEQ ID NO: 1) (peptide R1); and amino acid sequences including the amino acid sequence depicted in SEQ ID NO: 2, SGKFTCKVPGLYYFT (SEQ ID NO: 3) (peptide R3), FTCKVPGLYYFTYHA (SEQ ID NO: 4) (peptide R4), STGKFTCKVPGLYYF (SEQ ID NO: 5) (peptide R5), and CKVPGLYYFVYHASH (SEQ ID NO: 7) (peptide R6). Each peptide was dissolved in DMSO to make a concentration of 10 mg/ml and stored.
Human C1q protein (Carbiochem) was dissolved in 10 mM HEPES, 300 mM NaCl, 40% glycerol (pH 7.2) to prepare a 200 μg/ml solution of human C1q protein. The solution of human C1q protein was spotted at a volume of 2 μl (400 ng) per spot onto a nitrocellulose membrane of a size of 5 mm by 15 mm (Hybond C; Amersham), which was then air-dried at room temperature for about one hour. The nitrocellulose membrane was soaked in TBS, incubated for 5 minutes, and blocked at room temperature for one hour using TBS (20 mM Tris-HCl, pH 7.5, 150 mM NaCl) containing 5% of a blocking agent (Amersham ECL blocking reagent; GE Healthcare). […]

[2] = system: rat collagen-arthritis model; experiment: Arthritis suppressing effects on rat collagen-arthritis model; assay type: in vivo, rats
Experimental: A rat collagen-arthritis model was used to examine arthritis suppressing effects of a peptide, referred to as peptide R13.
Female Lewis rats were primed with 500 μg of type II bovine-derived collagen and boosted with 100 μg of the same collagen at 7 and 14 days post priming, to induce collagen arthritis. Peptide R13, a scramble peptide (dYdPdYGdFdL), or methotrexate was administered once a day for a period of 25 consecutive days from 12 days after arthritis was fully developed, and arthritis suppressing effect was examined in terms of clinical score. Methotrexate was administered at a dose of 0.15 mg/kg as a control drug.
The required amount was calculated for each peptide, based on the animal weight. Physiological saline was gradually added to prepare suspensions, to make concentrations of 100 and 10 mg/ml.
The clinical score of each limb of the extremities in all cases was observed every third day from day 12, on which arthritis was developed, up to day 36, with day 0 being the day of priming with type II bovine-derived collagen. Observations were according to the following criteria, with the total score for the extremities being set to a maximum of 12. […]

[3] = system: Monoclonal antibody cocktail-induced arthritis mice; experiment: Arthritis suppressing effects on arthritis-induced mice, Part 4; assay type: in vivo; conditions: intraperitoneal 100 mg/kg once a day from day 4; methotrexate 0.1 mg/kg
Experimental: Monoclonal antibody cocktail-induced arthritis mice were used to examine arthritis suppressing effects of peptides which are indicated as R13 in the section (3) in Example 2 and as R19 and R21 in the section (4) in Example 2. Arthritis was caused by intravenous administration of 2 mg/mouse of an arthritis-inducing monoclonal antibody cocktail and three days later, intraperitoneal administration of 50 μg/mouse of LPS. The peptides […] days from four days after the administration of the arthritis-inducing monoclonal antibody cocktail, and arthritis suppressing effect was examined in terms of clinical score and hind-limb volume determination.
The required amount was calculated for each peptide, based on the animal weight. […]
Measurement of body weight of animals was made on days 0, 3, 6, 9, 12, and 14 during the study period, with day 0 being the day of administration of the arthritis-inducing monoclonal antibody cocktail. Observation of general condition was made on a daily basis. […]
Results of examinations were expressed by mean value±standard error and analyzed using EXSAS (Version 7.1.6, Arm Systex Co., Ltd.). […] Quantitative data, such as body weights and leg volumes, were subjected to Bartlett's test, followed by Dunnett's multiple comparison test when the variance was uniform or Steel's multiple comparison test when the variance was not uniform.

[4] = system: type III allergic (Arthus) reaction-induced rats; experiment: Immune-complex disease suppression in type III allergic (Arthus) reaction-induced rats, Part 2; assay type: in vivo
Experimental: Using forty-five 7-week-old male Slc:Wistar rats, examinations were made on peptides R13 and R19, in two series of examinations, each using a different method of administration (intraperitoneal administration and tail vein administration). Acclimation was carried out by giving normal solid chow CRF-1 for a period of 6 or 8 days. The back of the animals was shaved on the day prior to administration, and a mixed solution of OVA and Evans blue dye was administered into the tail vein on the day of administration. Each peptide solution was administered intraperitoneally or into the tail vein 30 minutes or 50 minutes after the administration of the mixed solution of OVA and Evans blue dye, respectively. For intracutaneous administration of an anti-OVA solution, […] was intracutaneously administered in the back of animals at a dose of 0.1 ml/site 30 minutes or 10 minutes after the administration of the tested substance in the case of intraperitoneal or intravenous administration, respectively, so as to generate a local Arthus reaction. After the reaction was allowed to be generated for 4 hours, the animals were euthanized, the blood was removed thoroughly, and then the dorsal skin was exfoliated. The Arthus reaction sites on the exfoliated skin were punched out, and the Evans blue dye was extracted from the punched skin overnight. The amount of dye leakage was quantified by measuring absorbance for the Evans blue dye with a spectrophotometer and using a calibration curve.
A suspension was prepared by placing a predetermined amount of hydrocortisone into a mortar, grinding it with pestle, and then adding physiological saline to make the final concentration of 10 mg/ml.
A predetermined amount of each peptide (peptides R13 and R19) was dissolved in physiological saline to make a 20 mg/ml solution. A 2 mg/ml solution was prepared by diluting the 20 mg/ml solution 10-fold with physiological saline. A 5 mg/ml solution was prepared by dissolving each peptide in a predetermined amount in physiological saline to make a prepared solution.
A mixed solution of OVA and Evans blue dye was administered into the tail vein at a dose of 2 ml/kg. Each peptide solution was administered intraperitoneally or into the tail vein 30 minutes or 50 minutes after the administration of the mixed solution of OVA and Evans blue dye, respectively. […]
Several cuttings were made in the skin strips that were punched out with a punch. […] The amount of dye leakage was calculated from a calibration curve of known amounts of the dye.
The mean value (mean)±standard deviation (SD) for each group was calculated with body-weight measurements and amounts of dye leakage. […]

[5] = tail vein administration, 10 mg/kg

- inhibition of the binding between C1q and immunoglobulin [1]: inhibit the binding
Compound: CKAPGLYYF (Immunoglobulin binding peptide) [R10]

Compound: CC(C)C[C@@H](NC(=O)CNC(=O)[C@H]1CCCN1)C(=O)N[C@H](Cc1ccc(O)cc1)C(=O)N[C@H](Cc1ccc(O)cc1)C(=O)N[C@H](Cc1ccccc1)C(=O)O [R13, dPGdLdYdYdF] (H-[dP]G[dL][dY][dY][dF]-OH)
- abnormalities in general condition and effects on body weight ([2]; 100 and 10 mg/kg): abnormalities in general condition and effects on body weight were not observed

Compound: dSdKdVdPGdLdYdYdF ([dS][dK][dV][dP]G[dL][dY][dY][dF]) [R19]
- arthritis-suppressing effect (clinical score) compared with methotrexate [3]: arthritis-suppressing effect comparable to or greater than that of methotrexate
- suppression (decrease of dye leakage) compared to negative control ([4]; intraperitoneal administration, 100 mg/kg): 50%
- suppression effect (dye leakage) compared to negative control ([4]; intraperitoneal administration, 10 or 100 mg/kg): suppressed
- suppression (decrease of dye leakage) compared to negative control [4, 5]: about 50%
- suppression effect (dye leakage) compared to negative control [4, 5]: suppressed

Compound: dYdPdYGdFdL [scramble peptide, reference compound]
- suppression effect (clinical score) ([2]; negative control peptide, once a day, 25 consecutive days): did not exhibit any suppression effects

- inhibition of the binding between C1q and immunoglobulin [1]: inhibit the binding
Compound: STAKFTCKVPGLYYF (Immunoglobulin binding peptide) [R11]
